The values below come from PubChem BioAssay (NCI).

Assay in all cases: growth of human tumour cells (NCI), 48 h
For test [1], the system named is SW-620 colon.
Test [2] deals with ACHN renal.
Test [3] deals with NCI-H522 lung.
Test [4] relates to K-562 leukemia.
The test system of test [5] is HCC-2998 colon.
Test [6] relates to NCI/ADR-RES ovarian.
Test [7] has as its system SF-268 CNS.
Test [8] concerns HL-60(TB) leukemia.
For test [9], the system named is DU-145 prostate.
The test system of test [10] is CAKI-1 renal.
In test [11] the test system is BT-549 breast.

Each structure is given as a SMILES string. Values joined by “and” are separate entries in the source; they are usually repeats but may differ in a detail not shown here. Equal values may be shown once.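 96-well plates; 48 h exposure; 5 concentrations. Endpoints by linear interpolation between flanking doses. Not reached: highest tested concentration assigned. GI50 is the concentration that inhibits growth by half. TGI is the concentration that stops growth completely.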

For the compound `COC1=C(OC)C(=O)C(Cc2c(C)nc3sc(C)cn23)=C(C)C1=O`, the TGI in [1] was determined as 51.6 µM; in [2], 30 µM; in test [3], 70.6 µM; in [4], 39 µM; in [5] it was 92.9 µM; in test [6] it was 36.7 µM. Further, the TGI in test [7] was 35.7 µM; in [8], 29.8 µM; in test [9], 48 µM; in [10], 37.4 µM; in [11], 31.2 µM.

On to `O=C(N/N=C\c1cccc2c([N+](=O)[O-])cccc12)Nc1ccccc1`, for which the TGI in test [1] is 35.8 µM; in test [2], 27.3 µM; in test [3], 38.4 µM; in [4], 43.5 µM; in test [5] it was 32 µM; in [6], 32.3 µM. The TGI in test [7] amounted to 73 µM; in test [8], 72.6 µM; in test [9], 66.1 µM; in test [10], 25.5 µM; in test [11], 29.3 µM.

As for `N=C(N)c1ccc(C(NC(=O)CNS(=O)(=O)c2ccc3ccccc3c2)P(=O)(Oc2ccccc2)Oc2ccccc2)cc1` (stereo not given), the TGI in [1], in test [2], in [3], in [4], in test [5] and in [6] was more than 100 µM throughout. Moreover, the TGI in test [7] was more than 100 µM; in test [8], more than 100 µM; in test [9], more than 100 µM; in [10], more than 100 µM; in test [11] it was 66.2 µM.

In the case of `CSc1ccc2c(cc1=O)[C@@H](NC(=O)c1ccc(N)cc1)CCc1cc(O)c(O)c(O)c1-2`, the GI50 is 18.7 µM and 8.21 µM in test [1]; more than 75 µM in test [8]; > 75 µM and 25.8 µM in test [10]. Also, the TGI in test [1] was more than 100 µM; in test [2], 37.4 µM and 43.8 µM; in [3], 42.5 µM and 50.5 µM; in test [4], more than 100 µM; in test [5] it was 32.9 µM and 37.3 µM; in [6], 57.3 µM and 61.6 µM. Also, the TGI is 47.8 µM and > 100 µM in [7]; more than 75 µM in test [8]; more than 100 µM in [9]; > 75 µM and 53.2 µM in test [10]; 38.2 µM and 52.3 µM in test [11].

With `Cn1cc(NC(=O)c2cc(NC(=O)CN=C(N)N)cn2C)cc1C(=O)NCCC(=N)N`, the TGI in [1], in test [2], in [3], in test [4], in [5] and in [6] was more than 100 µM in each case. Also, the TGI in test [7], in [8], in [9], in [10] and in test [11] was more than 100 µM throughout.

Consider `c1ccc2c(c1)ccn2CCc1c[nH]c2ccccc12`, for which the TGI in [1], in [2], in test [3], in test [4], in test [5] and in test [6] was more than 10 µM throughout. Moreover, the TGI in test [7], in test [8], in test [9], in test [10] and in test [11] was more than 10 µM each time.

Turning to `CCOP(C)(=O)C(N)Cc1ccc(OC)c(OC)c1` (stereo not given), the TGI in [1], in test [2], in [3], in test [4], in test [5] and in [6] was more than 100 µM in each case. Moreover, the TGI in [7], in test [8], in test [9], in [10] and in test [11] was more than 100 µM each time.

On to `Cc1c(S(=O)(=O)/N=C(\NO)Nc2ccc(Cl)c(Cl)c2)sc2ccc(Cl)cc12`, for which the TGI is more than 100 µM in test [1]; 25.8 µM in [2]; 41.3 µM in test [3]; 71.4 µM in test [4]; 44.6 µM in test [5]; 41.7 µM in [6]. Moreover, the TGI turned out to be 58.8 µM in [7]; 77.3 µM in test [8]; 37.1 µM in test [9]; 38.2 µM in [10]; 34 µM in test [11].

With `COc1ccc2ccccc2c1/C=C/C(=O)c1ccccc1`, the TGI in [1] is 6.53 µM; in test [2], 11.1 µM; in [3], 14.6 µM; in test [4], 6.28 µM; in [5], 3.07 µM; in test [6] it was more than 54.8 µM. The TGI was 17.9 µM in test [7]; 4.33 µM in test [8]; 8.89 µM in test [9]; 15 µM in [10]; 14.7 µM in [11].

Take `O=c1cc(-c2ccc(F)cc2)[nH]c2ncc(Cl)cc12`: the TGI was more than 100 µM in test [1]; more than 100 µM in test [2]; 80.4 µM in [3]; 32.6 µM in test [4]; more than 100 µM in test [5]; more than 88 µM in test [6]. Moreover, the TGI is more than 100 µM in [7]; 15.3 µM in [8]; more than 74.4 µM in test [9]; more than 100 µM in test [10]; more than 100 µM in [11].

Consider `CC(=O)OCC12C(=O)C[C@@H](C)C3(CC(c4ccoc4)OC3=O)C1CCC(OC(C)=O)C21CO1` (stereo not given in full), for which the TGI in test [1], in test [2], in test [3], in test [4], in [5] and in test [6] was more than 100 µM in each case. For the same compound, the TGI in [7], in test [8], in test [9], in test [10] and in test [11] was more than 100 µM in each case.

Take `Cc1ccc([N+](=O)[O-])cc1S(=O)(=O)Nc1ccc(C2=NNC(c3ccccc3)C2)cc1` (stereo not given): the TGI in [1] is more than 100 µM; in test [2] it was 54.2 µM; in test [3] it was 57 µM; in test [4] it was 85 µM; in [5], 44.9 µM; in test [6], 92.2 µM. Also, the TGI in [7] was more than 100 µM; in test [8], 54.2 µM; in test [9] it was 92 µM; in test [10], 53.6 µM; in test [11], 52 µM.
